From patent US12365684B2, “Short-acting benzodiazepine salts and their polymorphic forms” (priority 2006, dated 2025)
“And” between values parts separate entries of the source, which are not always exact repeats. Equal values may be shown once. Read-outs that look alike come from different tables or passages of the source.

What was measured:
[1] = Thermodynamic aqueous solubility; assay type: physicochemical; conditions: water, 25° C., 24 hrs
Description: This was measured by suspending sufficient compound in 0.25 ml of solvent (water) to give a maximum final concentration of 10 mg/ml of the parent free form of the compound. The suspension was equilibrated at 25° C. for 24 hrs followed by a pH check and filtration through a glass fibre C 96 well plate. The filtrate is then diluted down 101x. Quantitation was by HPLC with reference to a standard dissolved in DMSO at approx 0.1 mg/ml. Different volumes of the standard, diluted and undiluted tests were injected. The solubility was calculated by integration of the peak area found at the same retention time as the peak maximum in the standard injection. If there is sufficient solid in the filter plate the XRPD is normally checked for phase changes, hydrate formation, amorphization, crystallization etc.

mice = test: Anaesthetic and sedative effects: loss of the righting reflex (LRR) after i.v. administration; assay type: in vivo; conditions: for NUMBER OF MICE WITH LRR: eight mice per group; for LRR DURATION, mean: maximum = 90 minutes after injection
Description: The anaesthetic and sedative effects of the besylate salt Form 1 of the present invention was evaluated. The besylate (benzenesulfonic acid) salt was dissolved in physiological saline for administration of the test composition to the animal. The test composition was administered to mice, placed in individual Plexiglas cages (20×10×10 cm). Mice were injected with either vehicle or test substance by the intravenous route. The latency to sleep and the duration of anaesthesia (maximum: 90 minutes after test-substance administration) were recorded. Anaesthesia is indicated by loss of the righting reflex (LRR). The righting reflex test was performed as soon as the animals appear sedated, approximately every 20-30 seconds. Once the righting reflex is absent, duration of loss of righting reflex was measured by testing for the return of the righting reflex approximately every 20-30 seconds thereafter. Eight mice were studied per group and the test was performed blind.

[2] = Polymorphism maturation experiment (solvent slurries), HPLC purity post 1 week; assay type: physicochemical; conditions: heat/cool cycle ambient to 60° C., starting hplc purity 97.7%
Description: The solid was slurried in various solvents (see Table 11) for one week on a heat/cool cycle from ambient to 60° C. After one week the slurries were evaporated and the solids analysed by XRPD and HPLC.
• Method: Gradient, Reverse Phase • Method Duration/min: 34 • Column: Phenomenex Gemini C18 5 μm (2.0×50 mm) (Guard cartridge Phenomenex Gemini C18 guard cartridge 2×4 mm) • Column Temperature/° C.: 40 • Injection/μl: 5 • Flow Rate ml/min: 0.8 • Detection: UV • Wavelength/nm: 255 (bandwidth of 90 nm), 240 (bandwidth of 80 nm), 254 (bandwidth of 8 nm) • Phase A: 2 mmol NH4HCO3 (adjusted to pH10 with NH3 solution) Phase B: acetonitrile Timetable: […]

[3] = Gravimetric Vapour Sorption (GVS); assay type: physicochemical; conditions: 25° C., 0-90% RH range
Description: All samples were run on a Hiden IGASorp moisture sorption analyser running CFRSorp software. Sample sizes were typically 10 mg. A moisture adsorption desorption isotherm was performed as outlined below (2 scans giving 1 complete cycle). All samples were loaded/unloaded at typical room humidity and temperature (40% RH, 25° C.). All samples were analysed by XRPD post GVS analysis. The standard isotherm was performed at 25° C. at 10% RH intervals over a 0-90% RH range unless otherwise stated.

[4] = Observed solubility of compound of formula (I) besylate in solvents; assay type: physicochemical; conditions: approximate
Text: The compound also has an excess of Hydrogen bond acceptors and therefore will be suitably partnered by Hydrogen bond donating solvents. It is thus expected that the compound will prefer solubilisation in a range of polar organic solvents such as the alcohols, particularly those which provide a partially lipophillic, Hydrogen bond donating environment. This has been borne out by experimental evidence (details of solvents used are given in Example 8):
Values quoted are approximate, but experimentally confirmed.

[5] = pKa determination (potentiometric titration, Sirius GlpKa); assay type: physicochemical; conditions: MeOH:H2O mixtures, MeOH:H2O mixtures at 25° C., extrapolated to 0% co-solvent
Description: pka determination was performed on a Sirius GlpKa instrument with D-PAS attachment. Measurements were made by potentiometric titration in MeOH:H2O mixtures at 25° C. The titration media was ionic strength adjusted with 0.15M KCl. The values found in the MeOH:H2O mixtures were extrapolated to 0% co-solvent via a Yasuda-Shedlovsky extrapolation.

[6] = Solid-state stability study of compound of formula (I) (appearance, HPLC content); assay type: physicochemical
Description: Method/Technique. 2 mg samples of compound of formula (I), accurately weighed, were placed in 4-mL clear glass screw-cap vials. Samples were tested at initial and after 34 days stored at 5° C./Ambient Relative Humidity (AMRH) Closed, 30° C./60% RH Closed, 40° C./75% RH Open and 60° C./AMRH Closed.

For `COC(=O)CC[C@@H]1N=C(c2ccccn2)c2cc(Br)ccc2-n2c(C)cnc21.O=S(=O)(O)c1ccccc1` [besylate Form 1], the solubility [1] was 8.3 mg/mL, the “NUMBER OF MICE WITH LRR” value (mice; 20.4 mg/kg i.v.) was 2 and the “LRR DURATION, mean” value (mice; 20.4 mg/kg i.v.) was 1.7 min. The “LATENCY TO LRR, mean ± s.e.m.” value (mice; 27.2 mg/kg i.v.) was 3.0 ± 0.2 min, the “NUMBER OF MICE WITH LRR” value (mice; 27.2 mg/kg i.v.) was 5+ and the “LRR DURATION, mean” value (mice; 27.2 mg/kg i.v.) was 4.9 min. For the same compound, the “LATENCY TO LRR, mean ± s.e.m.” value (mice; 34 mg/kg i.v.) was 1.8 ± 0.2 min, the “NUMBER OF MICE WITH LRR” value (mice; 34 mg/kg i.v.) was 6++ and the “LRR DURATION, mean” value (mice; 34 mg/kg i.v.) was 6.0 min. The “LATENCY TO LRR, mean ± s.e.m.” value (mice; 40.8 mg/kg i.v.) was 1.6 ± 0.5 min, the “NUMBER OF MICE WITH LRR” value (mice; 40.8 mg/kg i.v.) was 6++ and the “LRR DURATION, mean” value (mice; 40.8 mg/kg i.v.) was 7.3 min. For the same compound, the “HPLC purity post 1 week” value ([2]; slurried in 1,4-Dioxane) was 97.2 % area, the “HPLC purity post 1 week” value ([2]; slurried in 2.5% aq 1,4-Dioxane) was 86 % area and the “HPLC purity post 1 week” value ([2]; slurried in 2.5% aq DCM) was 97.4 % area. The “HPLC purity post 1 week” value ([2]; slurried in 2.5% aq IPA) was 76.1 % area, the “HPLC purity post 1 week” value ([2]; slurried in 2.5% aq MEK) was 93.9 % area and the “HPLC purity post 1 week” value ([2]; slurried in 2.5% aq MIBK) was 97.3 % area. The “HPLC purity post 1 week” value ([2]; slurried in 2.5% aq MeCN) was 93.3 % area, the “HPLC purity post 1 week” value ([2]; slurried in 2.5% aq THF) was 93.3 % area and the “HPLC purity post 1 week” value ([2]; slurried in 2.5% aq acetone) was 96.8 % area. For the same compound, the “HPLC purity post 1 week” value ([2]; slurried in DCM) was 97.4 % area, the “HPLC purity post 1 week” value ([2]; slurried in IPA) was 97.1 % area and the “HPLC purity post 1 week” value ([2]; slurried in MEK) was 97.2 % area. The “HPLC purity post 1 week” value ([2]; slurried in MIBK) was 97.7 % area, the “HPLC purity post 1 week” value ([2]; slurried in MeCN) was 94.3 % area and the “HPLC purity post 1 week” value ([2]; slurried in MtBE) was 97.7 % area. The “HPLC purity post 1 week” value ([2]; slurried in THF) was 97.6 % area, the “HPLC purity post 1 week” value ([2]; slurried in acetone) was 97.5 % area and the “HPLC purity post 1 week” value ([2]; slurried in iPrOAc) was 97.5 % area. The GVS uptake [3] was 2.0%.

Work on `COC(=O)CC[C@@H]1N=C(c2ccccn2)c2cc(Br)ccc2-n2c(C)cnc21.O=S(=O)(O)c1ccccc1` [compound of formula (I) besylate] yielded a solubility ([4]; Water) of 2 mg/mL, a solubility ([4]; organic solvent or mixture, 1,2-ethanediol) of 60 mg/mL and a solubility ([4]; organic solvent or mixture, 1,4-dioxan) of 1 mg/mL. The solubility ([4]; organic solvent or mixture, 2,2,2-trifluoroethanol) was 1000 mg/mL, the solubility ([4]; organic solvent or mixture, 2-ethoxyethanol) was 20 mg/mL and the solubility ([4]; organic solvent or mixture, 2-methoxyethanol) was 167 mg/mL. The solubility ([4]; organic solvent or mixture, Acetone) was 2 mg/mL, the solubility ([4]; organic solvent or mixture, Acetonitrile) was > 20 mg/mL and the solubility ([4]; organic solvent or mixture, Chloroform) was < 0.4 mg/mL. The solubility ([4]; organic solvent or mixture, Dichloromethane) was < 0.3 mg/mL, the solubility ([4]; organic solvent or mixture, Dimethyl sulfoxide) was 500 mg/mL and the solubility ([4]; organic solvent or mixture, Dimethylacetamide) was 200 mg/mL. The solubility ([4]; organic solvent or mixture, Dimethylformamide) was 300 mg/mL, the solubility ([4]; organic solvent or mixture, Ethanol) was 100 mg/mL and the solubility ([4]; organic solvent or mixture, Ethyl acetate) was 0.2 mg/mL. For the same compound, the solubility ([4]; organic solvent or mixture, Formamide) was 350 mg/mL, the solubility ([4]; organic solvent or mixture, Hexafluoropropan-2-ol) was > 700 mg/mL and the solubility ([4]; organic solvent or mixture, Methanol) was 400 mg/mL. It also gave a solubility ([4]; organic solvent or mixture, Methylbenzoate) of 2 mg/mL, a solubility ([4]; organic solvent or mixture, Propan-1-ol) of 15 mg/mL and a solubility ([4]; organic solvent or mixture, Propan-2-ol) of 4.8 mg/mL. For the same compound, the solubility ([4]; organic solvent or mixture, Tetrahydrofuran) was 2.5 mg/mL.

For `COC(=O)CC[C@@H]1N=C(c2ccccn2)c2cc(Br)ccc2-n2c(C)cnc21` [compound of formula (I), Methyl 3-[(4S)-8-bromo-1-methyl-6-(2-pyridinyl)-4H-imidazol [1,2-a][1,4]benzodiazepin-4-yl]propanoate], the pKa ([5]; read-out: pKa of the basic centre of the imidazole ring) was ~5, the pKa ([5]; read-out: pKa of the basic centre of the pyridine ring) was ~2 and the “% Relative to Avg. Initial % area” value ([6]; 5 C./AMRH Closed, 34 days) was 100.52%. For the same compound, the Appearance ([6]; 5 C./AMRH Closed, 34 days) was “Cream to light yellow powder”, the “Compound of Formula (I) Content % area” value ([6]; 5 C./AMRH Closed, 34 days) was 95.30 % area and the “Compound of Formula (I) Content % w/w” value ([6]; 5 C./AMRH Closed, 34 days) was 102.6 % w/w. For the same compound, the “% Relative to Avg. Initial % area” value ([6]; 30 C./60% RH Closed, 34 days) was 99.36%, the Appearance ([6]; 30 C./60% RH Closed, 34 days) was “Cream to light yellow powder” and the “Compound of Formula (I) Content % area” value ([6]; 30 C./60% RH Closed, 34 days) was 94.20 % area. For the same compound, the “Compound of Formula (I) Content % w/w” value ([6]; 30 C./60% RH Closed, 34 days) was 94.7 % w/w, the “drop in content relative to the initial % area” value ([6]; 30° C./60% RH Closed, 34 days) was “approximately 0.6%” and the “% Relative to Avg. Initial % area” value ([6]; 40 C./75% RH Open, 34 days) was 98.57% and 98.50%. For the same compound, the “Compound of Formula (I) Content % area” value ([6]; 40 C./75% RH Open, 34 days) was 93.45 % area and 93.39 % area, the “Compound of Formula (I) Content % w/w” value ([6]; 40 C./75% RH Open, 34 days) was 105.4 % w/w and 100.3 % w/w and the “% Relative to Avg. Initial % area” value ([6]; 60 C./AMRH Closed, 34 days) was 92.57%. The “Compound of Formula (I) Content % area” value ([6]; 60 C./AMRH Closed, 34 days) was 87.77 % area, the “Compound of Formula (I) Content % w/w” value ([6]; 60 C./AMRH Closed, 34 days) was 93.4 % w/w and 91.1 % w/w and the “decrease of average % w/w content from the initial value” ([6]; 34 days at 60° C./AMRH Closed) was 10 % w/w. For the same compound, the Appearance ([6]; RT, initial) was “Cream to light yellow powder”, the “Compound of Formula (I) Content % area” value ([6]; RT, initial) was 95.14 % area and 94.47 % area and the “Compound of Formula (I) Content % w/w” value ([6]; RT, initial) was 100.5 % w/w and 104.1 % w/w. The “Avg. Initial % area” value ([6]; RT, initial, average of two samples) was “Avg = 94.81 % area” and the “time stable with respect to appearance and content” value ([6]; stored at 5° C./AMRH Closed) was “at least 34 days”.
